Data published in patent EP0663912B1, “HETEROCYCLIC ETHER COMPOUNDS THAT ENHANCE COGNITIVE FUNCTION” (ABBOTT LABORATORIES, priority 1992, dated 1994).
Values joined by “and” are separate entries in the source; they are usually repeats but may differ in a detail not shown here. Equal entries are not always repeated. Structures can show the parent of a compound that is named as a salt.

Tests used:
[1] = Inhibitory (passive) avoidance (IA) test of learning/memory; format: in vivo
Description: The inhibitory (or sometimes called passive) avoidance (IA) test is a well accepted animal model of learning/memory used to assess the activity of novel cholinergic agonists to enhance cognitive function (Wanibuchi et al., Eur. J. Pharmacol., 1990, 187:479). Animals are placed in the illuminated (12 X 14 X 11 cm) portion of a two-chambered box, from which they enter through a guillotine door to the larger (24 X 13.5 X 12 cm) dark compartment of the box. Entry to the dark compartment is accompanied by a mild (0.5 mA), brief (2 seconds) footshock. Initial latencies to cross are recorded, with an imposed 60 second ceiling. Following a 72 hour retention interval, animals are returned to the illuminated chamber, and latency to return to the dark compartment is again recorded, with a ceiling of 180 seconds. No footshock is administered on the test day.
Twelve animals were used in each group.

CD1 mice = experiment: Mouse elevated plus-maze (EPM) test of anxiolytic activity; format: in vivo
Description: The mouse elevated plus-maze is a conflict test that probes anxiolytic activity of test compounds (Lister, Psychopharmacology, 1987, 92:180). It is based on the fact that exposure of mice to an elevated open arm leads to an avoidance response considerably stronger than that evoked by exposure to an enclosed arm.
The apparatus required to perform this test is made of plywood and consists of two open arms (17 X 8 cm) and two enclosed arms (17 X 8 X 15 cm) extending from a central platform (8 X 8 cm). It is mounted on a plywood base rising 39 cm above the floor. Mice are released on the central platform and the time spent in the open and enclosed arms is recorded during a 5 minute test period. The test compounds were administered to CD1 mice 15 minutes before the test. […]

[2] = test system: cholinergic channel receptors in PC12 cells; experiment: Whole-cell patch-clamp measurement of cholinergic channel activation in NGF-differentiated PC12 cells; format: cell-based, rat; settings: for CURRENT AT PEAK: holding potential -60 mV
Description: B. Protocols for the Determination of Cholinergic Channel Activation in PC12 Cells.
The cholinergic channel activator properties of Example 9 were investigated in PC12 cells using the whole-cell patch-clamp approach to measure current flow through ligand-gated membrane channels. […]
PC12 cells are a rat pheochromocytoma cell line that, upon treatment with nerve growth factor (NGF) differentiate into a neuronal phenotype and express nicotinic cholinergic channels (Greene & Tischier, Proceedings of the National Academy of Sciences of the United States of America, 73: 2424-2428, 1976; Dichter et al., Nature, 268: 501-504, 1977). Prominent neuronal cholinergic channel subunits in these cells are α3, α5, β2, β3 and β4 (Rogers et al., Journal of Neuroscience, 12: 4611-4623, 1992).
PC12 cells were obtained initially from ATCC and, using standard techniques were maintained in DMEM containing 10% heat-inactivated fetal calf serum and 5% heat-inactivated horse serum (37°C, 95% 02 & 5% CO2). Electrophysiologic recordings were obtained from differentiated (neurite-bearing) cells after 4-7 days exposure to NGF. For this purpose, the undifferentiated cells were first plated onto polylysine-coated 12 mm round glass coverslips in 60x15 mm plastic Petri dishes. After 20 minutes, differentiating medium was added (DMEM containing 100 ng/ml nerve growth factor, 5% heat-inactivated fetal calf serum and 2.5% heat-inactivated horse serum) and the cells were refed with this medium every 3 days.
The whole-cell patch-clamp technique was used to record voltage-activated currents and ligand-gated currents activated by substances applied through the U-tube flow-reversal technique (Fenwick et al., The Journal of Physiology (London) 331: 577-597, 1982). A coverslip bearing the cells was transferred from culture dish to the recording chamber (350 µL volume) and superfused (1 ml/min) at room temperature with an extracellular solution containing 150 mM NaCl, 2.8 mM KCI, 2.0 mM CaCl2, 1.0 mM MgCl2, ≥ 10 mM dextrose and 10 mM Na-HEPES buffer (7.3 pH, 325 mOsm). The intracellular (recording pipette) solution consisted of 140 mM KCl, 1.0 mM CaCl2, 2.0 mM MgCl2, 11 mM K-EGTA, and 10 mM K-HEPES buffer (7.3 pH, 315 mOsm). Osmolarities were adjusted using dextrose such that the extracellular solution was 10 mOsm hypertonic compared to the intracellular solution. Voltage-gated inward (sodium) and outward (potassium) currents were monitored throughout the experiment to determine establishment and maintenance of the whole-cell recording configuration.
The ligand was applied at least twice at each concentration in every cell, and applications were separated by ≥ 3 minutes to allow for recovery from desensitization, washout of the bathing solution, and re-equilibration of the U-tube. Antagonists were applied to the bathing solution through superfusion for 5-10 minutes prior to application of both antagonist and agonist through the U-tube flow reversal.

[3] = level of improvement in retention of the avoidance response, dose or dose range in brackets, IP 15 minutes before training, 12 animals per group
[4] = level of increase in time spent in the open arms, dose or dose range in brackets, given 15 minutes before 5 minute test

Row | Compound | IA [1, 3] | EPM (CD1 mice; [4]) | also measured
1 | Cc1ccc(OC[C@@H]2CCCN2)cn1.Cl.Cl [Example 18, 6-Methyl-3-(2-(S)-pyrrolidinylmethyloxy)pyridine dihydrochloride] | NE [0.019- 0.62] | significant [0.062- 0.19] | –
2 | c1csc(OCC23CCCN2CCC3)n1 [Example 34, 2-(1-(8-pyrrolizidinyl)methyloxy)thiazole hydrochloride salt] | NE [0.062-1.9] | marginal [0.62] | –
3 | CN1CCCC1c1cccnc1 (single isomer, unassigned; (-)) [(-)-nicotine, reference compound] | – | – | IA ([1]; in vivo, ip): significant [0.19-0.62]; EPM (CD1 mice; mouse, in vivo): significant [0.62-1.9]; time spent by the mice in the open arms of the maze (CD1 mice; mouse, in vivo): significant increase; CURRENT AT PEAK ([2]; 50 µM (-)-nicotine, individual PC12 cells A-E): 81 pA and 108 pA and 163 pA and 539 pA; CURRENT AT PEAK, MEAN±S.E.M. ([2]; 50 µM (-)-nicotine, n=5 PC12 cells): 235 ± 84 pA; EC50 ([2]; PC12 cells current response): 52 µM
4 | c1cncc(OC[C@@H]2CCCN2)c1 [Example 14, 3-(2-(S)-pyrrolidinylmethyloxy)pyridine furmarate] | NE [0.019- 0.62] | marginal [0.019] | –
5 | CC1CC[C@@H](COc2cccnc2)N1C.Cl.Cl (stereo partly drawn) [Example 22, 3-(1-Methyl-5-methyl-2-(S)-pyrrolidinylmethyloxy)pyridine dihydrochloride] | NE [0.062- 1.9] | NE [0.062-1.9] | –
6 | Cl.Cl.Clc1cncc(OC[C@@H]2CCCN2)c1 [Example 15, 5-Chloro-3-(2-(S)-pyrrolidinylmethyloxy)pyridine dihydrochloride] | significantly inhibits [0.062] | significant [0.062- 0.19] | –
7 | CN1CC[C@H]1COc1cccnc1.Cl [Example 10, 3-(1-Methyl-2-(S)-azetidinylmethyloxy)pyridine hydrochloride] | marginal [0.62] | significant [0.19] | –
8 | CN1CCC[C@H]1COc1cncc(Cl)c1.Cl.Cl [Example 16, 5-Chloro-3-(1-methyl-2-(S)-pyrrolidinylmethyloxy)pyridine dihydrochloride] | significant [0.019] | NE [0.019- 0.62] | –
9 | Cc1ncccc1OC[C@@H]1CCN1.Cl.Cl [Example 29, 2-Methyl-3-(2-(S)-azetidinylmethyloxy)pyridine dihydrochloride] | significantly Inhibits [19] | significant [0.62, 1.9] | –
10 | Cc1ncccc1OC[C@@H]1CCCN1.Cl.Cl [Example 17, 2-Methyl-3-(2-(S)-pyrrolidinylmethyloxy)pyridine dihydrochloride] | significant [0.062, 0.62, 1.9] | significant [1.9] | –
11 | Cl.c1cncc(OC[C@@H]2CCN2)c1 [Example 9, 3-(2-(S)-azetidinylmethyloxy)pyridine hydrochloride] | NE [0.0019- 0.062] | significant [0.0062] | CURRENT AT PEAK ([2]; 10 µM Example 9, individual PC12 cells A-E, hydrochloride): 165 pA and 173 pA and 484 pA and 283 pA and 702 pA; CURRENT AT PEAK, MEAN±S.E.M. ([2]; 10 µM Example 9, n=5 PC12 cells): 361 ±103 pA; RESPONSE RATIO Example 9 /(-)-NICOTINE ([2]; 10 µM Example 9 versus 50 µM (-)-nicotine in the same cell, individual PC12 cells A-E, hydrochloride, 10 µM): 203% and 161% and 171% and 173% and 130%; RESPONSE RATIO Example 9 /(-)-NICOTINE, MEAN±S.E.M. ([2]; 10 µM Example 9 versus 50 µM (-)-nicotine in the same cell, n=5): 168 ± 12%
12 | CN1CC[C@H]1COc1cnccn1.Cl [Example 8, 2-(1-Methyl-2-(S)-azetidinylmethyloxy)pyrazine hydrochloride] | NE [0.062- 1.9] | NE [0.062- 1.9] | –
13 | CN1CCC[C@H]1COc1cccnc1.O=C(O)/C=C/C(=O)O [Example 4, 3-(1-Methyl-2-(S)-pyrrolidinylmethyloxy)pyridine fumarate] | significant [0.019] | NE [0.019-0.62] | –
14 | CNC1(C)C2CCC(C2)C1(C)C (centres unmarked) [Mecamylamine, reference compound] | – | – | inhibition of the responses to Example 9 ([2]; Mecamylamine 10 µM against Example 9 10 µM, n=4): ≥ 80%
15 | CN1CCC[C@H]1COc1cnccn1.O=C(O)/C=C/C(=O)O [Example 3, 2-(1-Methyl-2-(S)-pyrrolidinylmethyloxy)pyrazine fumarate] | NE [0.062-1.9] | NE [0.019-0.62] | –
16 | Cl.c1cnc(OC[C@@H]2CCN2)cn1 [Example 7, 2-(2-(S)-azetidinylmethyloxy)pyrazine hydrochloride] | marginal | NE [0.019-0.62] | –
17 | Cc1ccc(OC[C@@H]2CCCN2C)cn1.Cl.Cl [Example 19, 6-Methyl-3-(1-methyl-2-(S)-pyrrolidinylmethyloxy)pyridine dihydrochloride] | NE [0.019- 0.62] | NE [0.019-62] | –
